What was measured:
Assay in all cases: relative viability (nuclei count vs DMSO), 5 days (fraction); higher = more cells survive
[1] = test system: NCI-H1650
How it was run: (§1)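 One day after seeding in 1536-well plates, lung cancer cell lines were dosed by pin tool. Dosing was either single-drug or a fixed anchor-drug dose plus five library-drug doses (not always all listed) in √10 steps. After 5 days, nuclei were stained in one fix-and-stain step and counted on 4× images, and relative viability is the nuclei count of treated wells over that of vehicle wells, given as the median of duplicate plates.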

[2] = test system: CAL-12T
How it was run: as §1

[3] = test system: NCI-H1915
How it was run: as §1

[4] = test system: H3255
How it was run: as §1

[5] = test system: LC-2-ad
How it was run: as §1

[6] = test system: NCI-H441
How it was run: as §1

[7] = test system: A-427
How it was run: as §1

[8] = test system: NCI-H1944
How it was run: as §1

[9] = test system: PC-3 [JPC-3]
How it was run: as §1

[10] = test system: NCI-H2087
How it was run: as §1

[11] = test system: NCI-H460
How it was run: as §1

[12] = test system: NCI-H596
How it was run: as §1

[13] = test system: 201T
How it was run: as §1

[14] = test system: NCI-H650
How it was run: as §1

[15] = test system: NCI-H727
How it was run: as §1

[16] = test system: BEN
How it was run: as §1

[17] = test system: LCLC-97TM1
How it was run: as §1

[18] = test system: NCI-H661
How it was run: as §1

[19] = test system: NCI-H520
How it was run: as §1

[20] = test system: ABC-1
How it was run: as §1

[21] = test system: NCI-H1651
How it was run: as §1

[22] = test system: NCI-H2023
How it was run: as §1

[23] = test system: NCI-H1792
How it was run: as §1

What does the source list for `NC(=O)Nc1cc(-c2cccc(F)c2)sc1C(=O)N[C@H]1CCCNC1` [AZD7762] + N=C(N)NC(=N)NCCc1ccccc1 [Phenformin] (partner 250 µM)?
relative viability ([1]; first compound 0.01 µM): 0.51; relative viability ([1]; first compound 0.03162 µM): 0.48; relative viability ([1]; first compound 0.1 µM): 0.439; relative viability ([1]; first compound 0.3162 µM): 0.252; relative viability ([1]; first compound 1 µM): 0.18; relative viability ([2]; first compound 0.01 µM): 0.605; relative viability ([2]; first compound 0.03162 µM): 0.559; relative viability ([2]; first compound 0.1 µM): 0.571; relative viability ([2]; first compound 0.3162 µM): 0.321; relative viability ([2]; first compound 1 µM): 0.114; relative viability ([3]; first compound 0.01 µM): 0.373; relative viability ([3]; first compound 0.03162 µM): 0.375; relative viability ([3]; first compound 0.1 µM): 0.368; relative viability ([3]; first compound 0.3162 µM): 0.362; relative viability ([3]; first compound 1 µM): 0.349; relative viability ([4]; first compound 0.01 µM): 0.337; relative viability ([4]; first compound 0.03162 µM): 0.357; relative viability ([4]; first compound 0.1 µM): 0.402; relative viability ([4]; first compound 0.3162 µM): 0.378; relative viability ([4]; first compound 1 µM): 0.374; relative viability ([5]; first compound 0.01 µM): 0.645; relative viability ([5]; first compound 0.03162 µM): 0.595; relative viability ([5]; first compound 0.1 µM): 0.555; relative viability ([5]; first compound 0.3162 µM): 0.592; relative viability ([5]; first compound 1 µM): 0.342; relative viability ([6]; first compound 0.01 µM): 1.05; relative viability ([6]; first compound 0.03162 µM): 0.732; relative viability ([6]; first compound 0.1 µM): 0.91; relative viability ([6]; first compound 0.3162 µM): 1.04; relative viability ([6]; first compound 1 µM): 0.618; relative viability ([7]; first compound 0.01 µM): 0.255; relative viability ([7]; first compound 0.03162 µM): 0.346; relative viability ([7]; first compound 0.1 µM): 0.292; relative viability ([7]; first compound 0.3162 µM): 0.304; relative viability ([7]; first compound 1 µM): 0.197; relative viability ([8]; first compound 0.01 µM): 0.196; relative viability ([8]; first compound 0.03162 µM): 0.23; relative viability ([8]; first compound 0.1 µM): 0.231; relative viability ([8]; first compound 0.3162 µM): 0.273; relative viability ([8]; first compound 1 µM): 0.21; relative viability ([9]; first compound 0.01 µM): 0.485; relative viability ([9]; first compound 0.03162 µM): 0.503; relative viability ([9]; first compound 0.1 µM): 0.449; relative viability ([9]; first compound 0.3162 µM): 0.484; relative viability ([9]; first compound 1 µM): 0.405; relative viability ([10]; first compound 0.01 µM): 0.434; relative viability ([10]; first compound 0.03162 µM): 0.513; relative viability ([10]; first compound 0.1 µM): 0.566; relative viability ([10]; first compound 0.3162 µM): 0.553; relative viability ([10]; first compound 1 µM): 0.554; relative viability ([11]; first compound 0.01 µM): 0.542; relative viability ([11]; first compound 0.03162 µM): 0.468; relative viability ([11]; first compound 0.1 µM): 0.467; relative viability ([11]; first compound 0.3162 µM): 0.253; relative viability ([11]; first compound 1 µM): 0.0452; relative viability ([12]; first compound 0.01 µM): 0.701; relative viability ([12]; first compound 0.03162 µM): 0.836; relative viability ([12]; first compound 0.1 µM): 0.641; relative viability ([12]; first compound 0.3162 µM): 0.809; relative viability ([12]; first compound 1 µM): 0.673; relative viability ([13]; first compound 0.01 µM): 0.465; relative viability ([13]; first compound 0.03162 µM): 0.406; relative viability ([13]; first compound 0.1 µM): 0.453; relative viability ([13]; first compound 0.3162 µM): 0.495; relative viability ([13]; first compound 1 µM): 0.442; relative viability ([14]; first compound 0.01 µM): 0.453; relative viability ([14]; first compound 0.03162 µM): 0.46; relative viability ([14]; first compound 0.1 µM): 0.49; relative viability ([14]; first compound 0.3162 µM): 0.446; relative viability ([14]; first compound 1 µM): 0.538; relative viability ([15]; first compound 0.01 µM): 0.465; relative viability ([15]; first compound 0.03162 µM): 0.548; relative viability ([15]; first compound 0.1 µM): 0.439; relative viability ([15]; first compound 0.3162 µM): 0.398; relative viability ([15]; first compound 1 µM): 0.262; relative viability ([16]; first compound 0.01 µM): 0.316; relative viability ([16]; first compound 0.03162 µM): 0.271; relative viability ([16]; first compound 0.1 µM): 0.222; relative viability ([16]; first compound 0.3162 µM): 0.266; relative viability ([16]; first compound 1 µM): 0.245; relative viability ([17]; first compound 0.01 µM): 0.429; relative viability ([17]; first compound 0.03162 µM): 0.434; relative viability ([17]; first compound 0.1 µM): 0.479; relative viability ([17]; first compound 0.3162 µM): 0.406; relative viability ([17]; first compound 1 µM): 0.433; relative viability ([18]; first compound 0.01 µM): 0.272; relative viability ([18]; first compound 0.03162 µM): 0.269; relative viability ([18]; first compound 0.1 µM): 0.232; relative viability ([18]; first compound 0.3162 µM): 0.265; relative viability ([18]; first compound 1 µM): 0.262; relative viability ([19]; first compound 0.01 µM): 0.623; relative viability ([19]; first compound 0.03162 µM): 0.758; relative viability ([19]; first compound 0.1 µM): 0.585; relative viability ([19]; first compound 0.3162 µM): 0.306; relative viability ([19]; first compound 1 µM): 0.283; relative viability ([20]; first compound 0.01 µM): 0.273; relative viability ([20]; first compound 0.03162 µM): 0.249; relative viability ([20]; first compound 0.1 µM): 0.268; relative viability ([20]; first compound 0.3162 µM): 0.203; relative viability ([20]; first compound 1 µM): 0.19; relative viability ([21]; first compound 0.01 µM): 0.36; relative viability ([21]; first compound 0.03162 µM): 0.434; relative viability ([21]; first compound 0.1 µM): 0.319; relative viability ([21]; first compound 0.3162 µM): 0.268; relative viability ([21]; first compound 1 µM): 0.17; relative viability ([22]; first compound 0.01 µM): 0.446; relative viability ([22]; first compound 0.03162 µM): 0.394; relative viability ([22]; first compound 0.1 µM): 0.255; relative viability ([22]; first compound 0.3162 µM): 0.171; relative viability ([22]; first compound 1 µM): 0.1; relative viability ([23]; first compound 0.01 µM): 0.412; relative viability ([23]; first compound 0.03162 µM): 0.26; relative viability ([23]; first compound 0.1 µM): 0.442; relative viability ([23]; first compound 0.3162 µM): 0.736; relative viability ([23]; first compound 1 µM): 0.258
